Activity calls are given as the source filed them. The rule behind the calls is not given here.
System: VEGF-stimulated ADSC/ECFC co-culture, nuclear area imaging
Assay: nuclear area loss in endothelial-stromal co-culture, dose response, cell-based, VEGF stimulation, IC50 (AID 1117324)

SMILES | IC50
COc1cc(-c2ccc(=O)[nH]n2)ccc1OC(F)F | > 10 µM (inactive)
O=C1c2ccccc2C(=O)C1C(=O)C(c1ccccc1)c1ccccc1 | > 10 µM (inactive)
CCCCCCCCOC(=O)c1ccccc1C(=O)OCCCCCCCC | > 10 µM (inactive)
COC(=O)Nc1nc2ccc(C(=O)C3CC3)cc2[nH]1 | > 10 µM (inactive)
O=C1NCCN1CCN1CCC(c2cn(-c3ccc(F)cc3)c3ccc(Cl)cc23)CC1 | > 10 µM (inactive)
C/C=C(/C(=C/C)c1ccc(OC(C)=O)cc1)c1ccc(OC(C)=O)cc1 | > 10 µM (inactive)
O=C(NOCC1CC1)c1ccc(F)c(F)c1Nc1ccc(I)cc1Cl | > 10 µM (inactive)
O=C1CC(c2ccc(Cl)cc2)CC(=O)N1 | > 10 µM (inactive)
O=C(Nc1ccc([N+](=O)[O-])cc1)Nc1ccc([N+](=O)[O-])cc1 | > 10 µM (inactive)
CC(=O)[C@]1(O)Cc2c(O)c3c(c(O)c2[C@@H](O[C@H]2C[C@H](N)[C@H](O)[C@H](C)O2)C1)C(=O)c1ccccc1C3=O | 0.538 µM
CCCCCCCCCCCCCCCCNc1ccc(C(=O)O)cc1 | > 10 µM (inactive)
COC(=O)c1ccccc1C(=O)OC | > 10 µM (inactive)
CC(=O)[O][Hg][c]1ccccc1 | 0.883 µM
CC(=O)Nc1ccn(C2COC(COC(=O)c3ccccc3)O2)c(=O)n1 (stereo not given) | > 10 µM (inactive)
O=C(Nc1ccc(Br)cc1)c1cc(Br)c(Br)s1 | > 10 µM (inactive)
C#C[C@]1(O)CC[C@H]2[C@@H]3CCc4cc(O)ccc4[C@H]3CC[C@@]21C | > 10 µM (inactive)
COc1cc(S(N)(=O)=O)cc(C(=O)O)c1OC | > 10 µM (inactive)
C/C(=C(/OCCOc1ccc(Cl)cc1)c1ccc(Cl)cc1Cl)n1ccnc1 | 9.42 µM (inactive)
Cc1c(N)cccc1C(F)(F)F | > 10 µM (inactive)
CCN1CCC[C@H]1CNC(=O)c1c(OC)ccc(Br)c1OC | > 10 µM (inactive)
CC12CCC(CC1)C(C)(C)O2 | > 10 µM (inactive)
CCN(CC)CCNC(=O)c1c(C)[nH]c(/C=C2\C(=O)Nc3ccc(F)cc32)c1C | > 10 µM (inactive)
C#C[C@]1(O)CC[C@@H]2[C@@H]3CCC4=CCCC[C@@H]4[C@H]3C(=C)C[C@@]21CC | 9.57 µM (inactive)
COc1cc(C=C2CCC/C(=C\c3ccc(O)c(OC)c3)C2=O)ccc1O | 6.98 µM (inactive)

SMILES | IC50
CCN(CC)C(=O)/C(C#N)=C/c1cc(O)c(O)c([N+](=O)[O-])c1 | > 10 µM (inactive)
O=C1C(=O)c2ccccc2C(O)=C1C1CCC(c2ccc(Cl)cc2)CC1 (stereo not given) | > 10 µM (inactive)
O=C1CC[C@H](C(=O)N2CCCCC2)N1 | > 10 µM (inactive)
Clc1ccc(CCC(Cn2ccnc2)Sc2c(Cl)cccc2Cl)cc1 (stereo not given) | 6.74 µM (inactive)
CCCCc1ccc2nc(NC(=O)OC)[nH]c2c1 | > 10 µM (inactive)
CC(C)Cn1cnc2c1c(=O)n(C)c(=O)n2C | > 10 µM (inactive)
Clc1ccc(Nc2nnc(Cc3ccncc3)c3ccccc23)cc1 | > 10 µM (inactive)
CN1CCN(CCCN2c3ccccc3Sc3ccc(S(=O)(=O)N(C)C)cc32)CC1 | > 10 µM (inactive)
O=C(OCc1ccccc1)c1cccnc1 | > 10 µM (inactive)
CC(COc1ccccc1)NN (stereo not given) | > 10 µM (inactive)
COc1cc([C@@H]2c3cc4c(cc3[C@H](O)[C@H]3COC(=O)[C@H]23)OCO4)cc(OC)c1OC | > 10 µM (inactive)
CC=CC1C(C(=O)OCc2c(F)c(F)c(COC)c(F)c2F)C1(C)C (stereo not given) | > 10 µM (inactive)
C=CCCCCCCCCC(=O)OC | > 10 µM (inactive)
CCC(C)(C)C(=O)O[C@H]1C[C@@H](C)C=C2C=C[C@H](C)[C@H](CC[C@@H]3C[C@@H](O)CC(=O)O3)[C@H]21 | 5.13 µM (inactive)
O=C1c2c(O)ccc(O)c2C(=O)c2c(NCCNCCO)ccc(NCCNCCO)c21 | 0.0127 µM
CCOC(=O)NC(C)(C)Cc1ccc(Cl)cc1 | > 10 µM (inactive)
O[C@@H](c1cc(C(F)(F)F)nc2c(C(F)(F)F)cccc12)[C@H]1CCCCN1 | 8.61 µM (inactive)
COC(=O)C(Cl)C(=O)OC | > 10 µM (inactive)
O=C(O)c1ccc(-n2nc(-c3ccccc3O)nc2-c2ccccc2O)cc1 | > 10 µM (inactive)
CCN(CC)CCNc1ccc(CO)c2sc3ccccc3c(=O)c12 | > 10 µM (inactive)
C=CC(C)(O)CCC=C(C)CCC=C(C)C (stereo not given) | > 10 µM (inactive)
COC(=O)C1=C(C)NC(C)=C(C(=O)OCCN2CCN(C(c3ccccc3)c3ccccc3)CC2)C1c1cccc([N+](=O)[O-])c1 (stereo not given) | > 10 µM (inactive)
CCCCCCCCCCCCCCCCCCCCCC(=O)Nc1ccn([C@@H]2O[C@H](CO)[C@@H](O)[C@H]2O)c(=O)n1 | > 10 µM (inactive)
CCCCCCNC(=O)n1cc(F)c(=O)[nH]c1=O | > 10 µM (inactive)

SMILES | IC50
O=NN(CCCl)C(=O)NC1CCCCC1 | > 10 µM (inactive)
CCCSc1ccc2nc(NC(=O)OC)[nH]c2c1 | > 10 µM (inactive)
Cc1cc(C2CCCCC2)n(O)c(=O)c1 | > 10 µM (inactive)
Cn1ccc2cc3c(cc21)CCN3C(=O)Nc1cccnc1 | > 10 µM (inactive)
COc1ccc(Cc2nccc3cc(OC)c(OC)cc23)cc1OC | > 10 µM (inactive)
Cc1cc(N)c2ccccc2[n+]1CCCCCCCCCC[n+]1c(C)cc(N)c2ccccc21 | > 10 µM (inactive)
CC(=O)NC(=O)c1ccccc1O | > 10 µM (inactive)
CCCCCCCCCCC[C@@H](C[C@@H]1OC(=O)[C@H]1CCCCCC)OC(=O)[C@H](CC(C)C)NC=O | > 10 µM (inactive)
O=C(O)CCCc1ccc(N(CCCl)CCCl)cc1 | > 10 µM (inactive)
CCCOc1ccc2nc(NC(=O)OC)[nH]c2c1 | > 10 µM (inactive)
CCCCCCCCCCCCCCCCCCNC(=O)OC1CCN(C(=O)OC[C@H](COC(=O)N(Cc2cccc[n+]2CC)C(=O)c2ccccc2OC)OC)CC1 | > 10 µM (inactive)
CC[C@]1(O)C[C@@H]2CN(CCc3c([nH]c4ccccc34)[C@@](C(=O)OC)(c3cc4c(cc3OC)N(C)[C@H]3[C@@](O)(C(=O)OC)[C@H](OC(C)=O)[C@]5(CC)C=CCN6CC[C@]43[C@@H]65)C2)C1 | > 10 µM (inactive)
C[C@@H]1C[C@@H]([C@H](O)CC2CC(=O)NC(=O)C2)C(=O)[C@@H](C)C1 | > 10 µM (inactive)
CCCOC(=O)c1cc(O)c(O)c(O)c1 | > 10 µM (inactive)
CSc1ccc(/C=C2/C(C)=C(CC(=O)O)c3cc(F)ccc32)cc1 | > 10 µM (inactive)
CN[C@@H]1C[C@@H](c2ccc(Cl)c(Cl)c2)c2ccccc21 | > 10 µM (inactive)
CC(=O)c1ccc(OCC(=O)N2CCCCC2)cc1 | > 10 µM (inactive)
Cc1[nH]cnc1C[C@H]1CCc2c(C)c3ccccc3n2C1=O | > 10 µM (inactive)
CC[C@]1(O)CC[C@H]2[C@@H]3CCC4=CCCC[C@@H]4[C@H]3CC[C@@]21C | > 10 µM (inactive)
Cc1cc2nc3ccc(=[N+](C)C)cc-3sc2cc1N | 8.15 µM (inactive)
COCC(C)N(C(=O)CCl)c1c(C)csc1C (stereo not given) | > 10 µM (inactive)
COc1cccc2c1C(=O)c1c(O)c3c(c(O)c1C2=O)C[C@@](O)(C(=O)CO)C[C@@H]3O[C@H]1C[C@H](N)[C@H](O)[C@H](C)O1 | 0.114 µM
